Read-outs that look alike come from different tables or passages of the source. Positions of bridges follow the written chain, without caps; N, C: chain ends. Residues, ends and D or L forms follow the SMILES beside them.
Legend:
[1] = tested on: A/Roma-ISS/02/08 H1N1 oseltamivir-sensitive virus; assay type: cell-based, Influenza A virus; settings: turkey erythrocytes
A/Parma/05/06 H3N2 [2] = assay type: cell-based, Influenza A virus; settings: turkey erythrocytes
A/Parma/05/06 H3N2 [3] = tested on: A/Parma/05/06 H3N2
[4] = tested on: Influenza A virus strains (all tested viruses); settings: earlier work; ref [23]; cited from earlier work
[5] = tested on: Influenza A virus strains (all tested viruses); settings: earlier work; ref [23]; cited from earlier work; remark: listed apart in the source
[6] = A/Parma/24/09 H1N1, MDCK cells, CC50 >25 μM
[7] = A/Roma-ISS/02/08 H1N1, MDCK cells, CC50 >25 μM
[8] = A/Parma/05/06 H3N2, MDCK cells, CC50 >25 μM
[9] = A/Parma/24/09 H1N1, MDCK cells, mean of 3 experiments with standard errors
[10] = A/Roma-ISS/02/08 H1N1, MDCK cells, mean of 3 experiments with standard errors
[11] = A/Parma/05/06 H3N2, MDCK cells, mean of 3 experiments with standard errors
[12] = A/Roma-ISS/2/08 H1N1, neutralization

Compound | HI titer [1] | HI titer (A/Parma/05/06 H3N2 [2]) | SI (CC50/EC50) (A/Parma/24/09 H1N1; [6]) | SI (CC50/EC50) (A/Roma-ISS/02/08 H1N1; [7]) | SI (CC50/EC50) (A/Parma/05/06 H3N2 [3]; [8]) | further results
SKHSSLDCVLRPTEGY [Peptide 12, bLf C-lobe fragment 418–433] | 0.7 nM | 0.03 nM |  |  |  | 
CC(=O)N[C@H](C(=O)N[C@@H](CC(C)C)C(=O)N[C@@H](CCCNC(=N)N)C(=O)N1CCC[C@H]1C(N)=O)C(C)C [Peptide 14, VLRP] (Ac-VLRP-NH2) |  |  |  |  |  | SI (CC50/EC50) (A/Parma/24/09 H1N1): >2.5.10^7; EC50 (A/Parma/24/09 H1N1; A/Parma/24/09, 1 h): 1 ± 0.05 pM; SI (CC50/EC50) (A/Roma-ISS/02/08 H1N1): >5.55.10^7; SI (CC50/EC50) (A/Parma/05/06 H3N2 [3]): >1.10^5; EC50 (A/Parma/05/06 H3N2 [3]; A/Parma/05/06, 1 h): 250 ± 0.42 pM
AGDDQGLDKCVPNSKEK [Peptide 2, bLf C-lobe fragment 506–522] |  |  |  |  |  | concentration inhibiting viral hemagglutination [4]: low picomolar; concentration inhibiting viral infection [5]: low picomolar
C[C@H](NC(=O)CNC(=O)[C@@H]1CCCN1C(=O)[C@H](C)NC(=O)[C@@H]1CSSC[C@H](NC(=O)[C@H](CO)NC(=O)CNC(=O)[C@@H](N)[C@@H](C)O)C(=O)N[C@@H](C)C(=O)N[C@@H](Cc2ccccc2)C(=O)N[C@@H](CC(=O)O)C(=O)N[C@@H](CCC(=O)O)C(=O)N[C@@H](Cc2ccccc2)C(=O)N[C@@H](Cc2ccccc2)C(=O)N[C@@H](CO)C(=O)N[C@@H](CCC(N)=O)C(=O)N[C@@H](CO)C(=O)N1)C(=O)N[C@@H](CC(=O)O)C(=O)N1CCC[C@H]1C(=O)N[C@@H](CCCCN)C(=O)N[C@@H](CO)C(=O)N[C@@H](CCCNC(=N)N)C(=O)O [Peptide 5] (H-TGSCAFDEFFSQSCAPGADPKSR-OH; disulfide 4-14; N-terminus assumed) |  | 97 nM |  |  |  | 
NRKSSKHSSLDCVLRPTEGY [Peptide 10, bLf C-lobe fragment 414–433] | 0.3 nM | 0.0014 nM |  |  |  | 
NGESSADWAKN [Peptide 3] |  |  |  |  |  | concentration inhibiting viral hemagglutination [4]: low picomolar; concentration inhibiting viral infection [5]: low picomolar
CC(C)C[C@H](NC(=O)[C@H](CO)NC(=O)[C@H](CO)NC(=O)[C@H](Cc1c[nH]cn1)NC(=O)[C@H](CCCCN)NC(=O)[C@@H](N)CO)C(=O)N[C@@H](CC(=O)O)C(=O)N[C@@H](CS)C(=O)N[C@H](C(=O)N[C@@H](CC(C)C)C(=O)N[C@@H](CCCNC(=N)N)C(=O)N1CCC[C@H]1C(=O)O)C(C)C [Peptide 1, SKHSSLDCVLRP] (H-SKHSSLDCVLRP-OH) |  |  | >8.10^6 | >6.25.10^6 | >4.4.10^6 | 
CC(=O)N[C@@H](CO)C(=O)N[C@@H](CCCCN)C(=O)N[C@@H](Cc1c[nH]cn1)C(=O)N[C@@H](CO)C(N)=O [Peptide 17, SKHS] (Ac-SKHS-NH2) |  |  |  |  |  | SI (CC50/EC50) (A/Parma/24/09 H1N1): >5.2.10^8; SI (CC50/EC50) (A/Roma-ISS/02/08 H1N1): >8.33.10^6; EC50 (A/Roma-ISS/02/08 H1N1; A/Roma-ISS/02/08, 1 h): 3 ± 0.61 pM; SI (CC50/EC50) (A/Parma/05/06 H3N2 [3]): >5.10^6; EC50 (A/Parma/05/06 H3N2 [3]; A/Parma/05/06, 1 h): 5 ± 0.02 pM
CC(=O)N[C@@H](CO)C(=O)N[C@@H](CC(C)C)C(=O)N[C@@H](CC(=O)O)C(=O)N[C@@H](CS)C(N)=O [Peptide 15, SLDC] (Ac-SLDC-NH2) |  |  | >5.4.10^6 | >5.10^7 |  | EC50 (A/Parma/24/09 H1N1; [9]): 4.6 ± 0.05 pM
C[C@H](NC(=O)[C@H](Cc1c[nH]c2ccccc12)NC(=O)[C@H](CC(=O)O)NC(=O)[C@H](C)NC(=O)[C@@H](NC(=O)[C@H](CO)NC(=O)[C@H](CCC(=O)O)NC(=O)CNC(=O)[C@H](CC(N)=O)NC(=O)[C@@H](N)[C@@H](C)O)[C@@H](C)O)C(=O)N[C@@H](CCCCN)C(=O)N[C@@H](CC(N)=O)C(N)=O [Peptide 6, TNGESTADWAKN] (H-TNGESTADWAKN-NH2; N-terminus and C-terminus assumed) | 0.7 nM | 0.3 nM | >5.10^2 | >6.25.10^4 | >2.5.10^3 | EC50 (A/Roma-ISS/02/08 H1N1; [10]): 400 ± 0.02 pM
CC(C)C[C@H](NC(=O)[C@@H](NC(=O)[C@H](CS)NC(=O)[C@H](CC(=O)O)NC(=O)[C@H](CC(C)C)NC(=O)[C@@H](N)CO)C(C)C)C(=O)N[C@@H](CCCNC(=N)N)C(=O)N1CCC[C@H]1C(N)=O [Peptide 13, SLDCVLRP] (H-SLDCVLRP-NH2) | 0.0007 nM | 0.0004 nM | >1.10^7 | >8.33.10^7 | >8.33.10^4 | EC50 (A/Parma/24/09 H1N1; [9]): 2.5 ± 0.37 pM; EC50 (A/Parma/05/06 H3N2 [3]; [11]): 300 ± 0.2 pM; loss of activity with respect to 1 (A/Parma/05/06 H3N2 [3]; H3N2 strain, neutralization): ≈ 50 fold
CC(C)C[C@H](NC(=O)CNC(=O)[C@H](CCC(=O)O)NC(=O)[C@H](CC(N)=O)NC(=O)[C@H](C)NC(=O)[C@@H](N)CCCCN)C(=O)N[C@H](C(=O)N[C@@H](Cc1c[nH]c2ccccc12)C(=O)N[C@@H](CC(N)=O)C(=O)N[C@@H](CO)C(=O)N[C@@H](CC(C)C)C(=O)N[C@@H](CCCCN)C(=O)N[C@@H](CC(=O)O)C(=O)N[C@@H](CCCCN)C(=O)O)[C@@H](C)O [Peptide 4, KANEGLTWNSLKDK] (H-KANEGLTWNSLKDK-OH) |  |  | >5.10^2 | >2.5.10^7 | >2.5.10^4 | EC50 (A/Roma-ISS/02/08 H1N1; [10]): 1 ± 0.15 pM
NRKSSKHSSLDCVLRP [Peptide 11, bLf C-lobe fragment 414–429] |  | 0.4 nM |  |  |  | 
C[C@@H](O)[C@H](NC(=O)[C@H](CCC(=O)O)NC(=O)[C@H](CO)NC(=O)[C@@H](N)CCCCN)C(=O)N[C@@H](CCCCN)C(=O)N[C@@H](CC(N)=O)C(=O)O [Peptide 8, KSETKN] (H-KSETKN-OH; N-terminus and C-terminus assumed) | 1.5 nM | 3 nM | >5.10^4 | >5.10^7 | >0.65.10^2 | EC50 (A/Parma/24/09 H1N1; [9]): 500 ± 0.46 pM
CC(C)C[C@H](NC(=O)[C@H](CO)NC(=O)[C@H](CO)NC(=O)[C@H](Cc1c[nH]cn1)NC(=O)[C@H](CCCCN)NC(=O)[C@@H](N)CO)C(=O)N[C@@H](CC(=O)O)C(=O)N[C@@H](CS)C(=O)O [Peptide 16, SKHSSLDC] (H-SKHSSLDC-OH; N-terminus and C-terminus assumed) | 0.3 nM | 12 nM | >2.5.10^8 | >3.125.10^5 | >5.10^6 | fold more potent than 1 (A/Parma/24/09 H1N1; A/Parma/24/09 H1N1, neutralization): 30 fold; fold less active than 1 (A/Roma-ISS/02/08 H1N1; [12]): 20 fold; fold less active than 13 (A/Roma-ISS/02/08 H1N1; [12]): 270 fold; EC50 (A/Roma-ISS/02/08 H1N1; [10]): 80 ± 0.19 pM; EC50 (A/Parma/05/06 H3N2 [3]; [11]): 5 ± 0.45 pM

Source: publication PMC5587682 (Scientific Reports, 2017)
